Target: human Nav 1.8 (Homo sapiens, UniProt Q9Y5Y9)
Assay: E-VIPR assay detecting and measuring Nav inhibition properties
Assay type: cell-based
Conditions: HEK cells expressing a truncated form of human Nav 1.8; compound numbers without "*" (not marked as run in the presence of human serum); read-out: measured IC50 value in the E-VIPR Assay
Procedure, shortened: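 Nav inhibition was read by E-VIPR: cells were electrically stimulated while coumarin/oxonol FRET emissions were recorded. Cells were HEK expressing a truncated human Nav 1.8 and co-transduced with KIR2.1, and were assayed in 25% final human serum.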

Chain of human Nav 1.8 (Q9Y5Y9 126-399 limits assumed): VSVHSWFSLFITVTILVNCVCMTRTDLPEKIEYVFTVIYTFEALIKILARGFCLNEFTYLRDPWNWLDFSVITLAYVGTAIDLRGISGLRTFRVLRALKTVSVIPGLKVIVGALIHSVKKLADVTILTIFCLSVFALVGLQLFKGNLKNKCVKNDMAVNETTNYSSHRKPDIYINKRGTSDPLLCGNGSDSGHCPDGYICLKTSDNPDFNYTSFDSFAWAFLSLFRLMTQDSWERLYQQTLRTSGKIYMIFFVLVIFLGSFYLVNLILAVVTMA
Chain of human Nav 1.8 (Q9Y5Y9 660-890 limits assumed): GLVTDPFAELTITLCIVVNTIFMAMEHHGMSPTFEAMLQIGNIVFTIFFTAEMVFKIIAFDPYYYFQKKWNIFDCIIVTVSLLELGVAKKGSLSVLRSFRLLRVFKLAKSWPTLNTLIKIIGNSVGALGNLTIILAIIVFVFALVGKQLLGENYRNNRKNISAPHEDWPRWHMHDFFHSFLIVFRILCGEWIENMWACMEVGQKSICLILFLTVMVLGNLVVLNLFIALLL
Chain of human Nav 1.8 (Q9Y5Y9 1148-1722 limits assumed): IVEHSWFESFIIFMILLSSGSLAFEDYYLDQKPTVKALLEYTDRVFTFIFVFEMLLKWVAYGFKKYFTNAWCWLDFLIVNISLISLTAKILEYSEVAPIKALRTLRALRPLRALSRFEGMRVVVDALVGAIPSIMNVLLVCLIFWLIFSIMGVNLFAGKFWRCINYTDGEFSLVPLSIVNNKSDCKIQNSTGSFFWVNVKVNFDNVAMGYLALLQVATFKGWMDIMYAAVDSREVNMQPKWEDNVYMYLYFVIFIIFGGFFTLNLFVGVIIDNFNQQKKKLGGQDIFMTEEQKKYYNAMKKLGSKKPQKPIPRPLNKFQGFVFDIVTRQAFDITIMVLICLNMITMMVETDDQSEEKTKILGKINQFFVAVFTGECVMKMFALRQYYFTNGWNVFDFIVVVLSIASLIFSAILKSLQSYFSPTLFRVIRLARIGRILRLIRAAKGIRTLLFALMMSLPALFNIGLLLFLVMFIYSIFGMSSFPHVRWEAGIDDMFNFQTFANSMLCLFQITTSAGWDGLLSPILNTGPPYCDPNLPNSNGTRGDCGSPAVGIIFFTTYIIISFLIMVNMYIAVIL

SMILES | IC50
COc1c([C@H]2[C@H](C(=O)Nc3ccnc(C(=O)N4CCN[C@H](C)C4)c3)O[C@@](C)(C(F)(F)F)[C@H]2C)ccc(F)c1F [Compound 249, (2R,3S,4S,5R)-3-(3,4-difluoro-2-methoxyphenyl)-4,5-dimethyl-N-(2-((R)-3-methylpiperazine-1-carbonyl)pyridin-4-yl)-5-(trifluoromethyl)tetrahydrofuran-2-carboxamide] | < 10 nM
COc1c([C@H]2[C@H](C(=O)Nc3ccnc(C(=O)N4C[C@@H](C)NC[C@H]4C)c3)O[C@@](C)(C(F)(F)F)[C@H]2C)ccc(F)c1F [Compound 250, (2R,3S,4S,5R)-3-(3,4-difluoro-2-methoxyphenyl)-N-(2-((2R,5R)-2,5-dimethylpiperazine-1-carbonyl)pyridin-4-yl)-4,5-dimethyl-5-(trifluoromethyl)tetrahydrofuran-2-carboxamide] | < 10 nM
COc1c([C@H]2[C@H](C(=O)Nc3ccnc(C(=O)NC[C@H]4CCCCN4)c3)O[C@@](C)(C(F)(F)F)[C@H]2C)ccc(F)c1F [Compound 251, 4-((2R,3S,4S,5R)-3-(3,4-difluoro-2-methoxyphenyl)-4,5-dimethyl-5-(trifluoromethyl)tetrahydrofuran-2-carboxamido)-N-(((R)-piperidin-2-yl)methyl)picolinamide] | 10 to 100 nM
COc1c([C@H]2[C@H](C(=O)Nc3ccnc(C(=O)N[C@@H]4CNC[C@H](C)C4)c3)O[C@@](C)(C(F)(F)F)[C@H]2C)ccc(F)c1F [Compound 252, 4-((2R,3S,4S,5R)-3-(3,4-difluoro-2-methoxyphenyl)-4,5-dimethyl-5-(trifluoromethyl)tetrahydrofuran-2-carboxamido)-N-((3S,5R)-5-methylpiperidin-3-yl)picolinamide] | 10 to 100 nM
CCO[C@H]1CNC[C@@H]1NC(=O)c1cc(NC(=O)[C@@H]2O[C@@](C)(C(F)(F)F)[C@@H](C)[C@H]2c2ccc(F)c(F)c2OC)ccn1 [Compound 253, 4-((2R,3S,4S,5R)-3-(3,4-difluoro-2-methoxyphenyl)-4,5-dimethyl-5-(trifluoromethyl)tetrahydrofuran-2-carboxamido)-N-((3S,4S)-4-ethoxypyrrolidin-3-yl)picolinamide] | 10 to 100 nM
COc1c([C@H]2[C@H](C(=O)Nc3ccnc(C(=O)N4C[C@H]5C[C@@H]4CN5)c3)O[C@@](C)(C(F)(F)F)[C@H]2C)ccc(F)c1F [Compound 254, (2R,3S,4S,5R)-N-(2-((1R,4R)-2,5-diazabicyclo[2.2.1]heptane-2-carbonyl)pyridin-4-yl)-3-(3,4-difluoro-2-methoxyphenyl)-4,5-dimethyl-5-(trifluoromethyl)tetrahydrofuran-2-carboxamide] | < 10 nM
COc1c([C@H]2[C@H](C(=O)Nc3ccnc(C(=O)N4C[C@@H](F)[C@@H](N)C4)c3)O[C@@](C)(C(F)(F)F)[C@H]2C)ccc(F)c1F [Compound 255, (2R,3S,4S,5R)-N-(2-((3S,4R)-3-amino-4-fluoropyrrolidine-1-carbonyl)pyridin-4-yl)-3-(3,4-difluoro-2-methoxyphenyl)-4,5-dimethyl-5-(trifluoromethyl)tetrahydrofuran-2-carboxamide] | < 10 nM
CN[C@H]1CN(C(=O)c2cc(NC(=O)[C@@H]3O[C@@](C)(C(F)(F)F)[C@@H](C)[C@H]3c3ccc(F)c(F)c3OC)ccn2)C[C@@H]1OC [Compound 256, (2R,3S,4S,5R)-3-(3,4-difluoro-2-methoxyphenyl)-N-(2-((3S,4S)-3-methoxy-4-(methylamino)pyrrolidine-1-carbonyl)pyridin-4-yl)-4,5-dimethyl-5-(trifluoromethyl)tetrahydrofuran-2-carboxamide] | < 10 nM
COc1c([C@H]2[C@H](C(=O)Nc3ccnc(C(=O)N4C[C@H](N)[C@H](OC)C4)c3)O[C@@](C)(C(F)(F)F)[C@H]2C)ccc(F)c1F [Compound 257, (2R,3S,4S,5R)-N-(2-((3S,4R)-3-amino-4-methoxypyrrolidine-1-carbonyl)pyridin-4-yl)-3-(3,4-difluoro-2-methoxyphenyl)-4,5-dimethyl-5-(trifluoromethyl)tetrahydrofuran-2-carboxamide] | < 10 nM
COc1c([C@H]2[C@H](C(=O)Nc3ccnc(C(=O)N4C[C@@H](N)[C@H](F)C4)c3)O[C@@](C)(C(F)(F)F)[C@H]2C)ccc(F)c1F [Compound 258, (2R,3S,4S,5R)-N-(2-((3R,4R)-3-amino-4-fluoropyrrolidine-1-carbonyl)pyridin-4-yl)-3-(3,4-difluoro-2-methoxyphenyl)-4,5-dimethyl-5-(trifluoromethyl)tetrahydrofuran-2-carboxamide] | < 10 nM
COc1c([C@H]2[C@H](C(=O)Nc3ccnc(C(=O)N4C[C@@H](N)[C@@H](F)C4)c3)O[C@@](C)(C(F)(F)F)[C@H]2C)ccc(F)c1F [Compound 259, (2R,3S,4S,5R)-N-(2-((3R,4S)-3-amino-4-fluoropyrrolidine-1-carbonyl)pyridin-4-yl)-3-(3,4-difluoro-2-methoxyphenyl)-4,5-dimethyl-5-(trifluoromethyl)tetrahydrofuran-2-carboxamide] | < 10 nM
COc1c([C@H]2[C@H](C(=O)Nc3ccnc(C(=O)N4C[C@H](N)[C@@H](F)C4)c3)O[C@@](C)(C(F)(F)F)[C@H]2C)ccc(F)c1F [Compound 260, (2R,3S,4S,5R)-N-(2-((3S,4S)-3-amino-4-fluoropyrrolidine-1-carbonyl)pyridin-4-yl)-3-(3,4-difluoro-2-methoxyphenyl)-4,5-dimethyl-5-(trifluoromethyl)tetrahydrofuran-2-carboxamide] | < 10 nM
COc1c([C@H]2[C@H](C(=O)Nc3ccnc(C(=O)N4C[C@@H](N)[C@@H](OC)C4)c3)O[C@@](C)(C(F)(F)F)[C@H]2C)ccc(F)c1F [Compound 261, (2R,3S,4S,5R)-N-(2-((3R,4S)-3-amino-4-methoxypyrrolidine-1-carbonyl)pyridin-4-yl)-3-(3,4-difluoro-2-methoxyphenyl)-4,5-dimethyl-5-(trifluoromethyl)tetrahydrofuran-2-carboxamide] | < 10 nM
COc1c([C@H]2[C@H](C(=O)Nc3ccnc(C(=O)N4C[C@H](OC)[C@@H](N)C4)c3)O[C@@](C)(C(F)(F)F)[C@H]2C)ccc(F)c1F [Compound 262, (2R,3S,4S,5R)-N-(2-((3S,4S)-3-amino-4-methoxypyrrolidine-1-carbonyl)pyridin-4-yl)-3-(3,4-difluoro-2-methoxyphenyl)-4,5-dimethyl-5-(trifluoromethyl)tetrahydrofuran-2-carboxamide] | < 10 nM
COc1c([C@H]2[C@H](C(=O)Nc3ccnc(C(=O)N4C[C@@H](N)[C@H](OC)C4)c3)O[C@@](C)(C(F)(F)F)[C@H]2C)ccc(F)c1F [Compound 263, (2R,3S,4S,5R)-N-(2-((3R,4R)-3-amino-4-methoxypyrrolidine-1-carbonyl)pyridin-4-yl)-3-(3,4-difluoro-2-methoxyphenyl)-4,5-dimethyl-5-(trifluoromethyl)tetrahydrofuran-2-carboxamide] | < 10 nM
COc1c([C@H]2[C@H](C(=O)Nc3ccnc(C(=O)N4CCC45CN(C)C5)c3)O[C@@](C)(C(F)(F)F)[C@H]2C)ccc(F)c1F [Compound 266, (2R,3S,4S,5R)-3-(3,4-difluoro-2-methoxyphenyl)-4,5-dimethyl-N-(2-(6-methyl-1,6-diazaspiro[3.3]heptane-1-carbonyl)pyridin-4-yl)-5-(trifluoromethyl)tetrahydrofuran-2-carboxamide] | 10 to 100 nM
COc1c([C@H]2[C@H](C(=O)Nc3ccnc(C(=O)NC[C@@H]4CC(F)(F)CN4C)c3)O[C@@](C)(C(F)(F)F)[C@H]2C)ccc(F)c1F [Compound 267, N-(((S)-4,4-difluoro-1-methylpyrrolidin-2-yl)methyl)-4-((2R,3S,4S,5R)-3-(3,4-difluoro-2-methoxyphenyl)-4,5-dimethyl-5-(trifluoromethyl)tetrahydrofuran-2-carboxamido)picolinamide] | 100 to 1000 nM
COc1c([C@H]2[C@H](C(=O)Nc3ccnc(C(=O)N4CC5(CN(C)C5)C4)c3)O[C@@](C)(C(F)(F)F)[C@H]2C)ccc(F)c1F [Compound 268, (2R,3S,4S,5R)-3-(3,4-difluoro-2-methoxyphenyl)-4,5-dimethyl-N-(2-(6-methyl-2,6-diazaspiro[3.3]heptane-2-carbonyl)pyridin-4-yl)-5-(trifluoromethyl)tetrahydrofuran-2-carboxamide] | < 10 nM
COc1c([C@H]2[C@H](C(=O)Nc3ccnc(C(=O)N(C)[C@@H]4CCN(C)C4)c3)O[C@@](C)(C(F)(F)F)[C@H]2C)ccc(F)c1F [Compound 269, 4-((2R,3S,4S,5R)-3-(3,4-difluoro-2-methoxyphenyl)-4,5-dimethyl-5-(trifluoromethyl)tetrahydrofuran-2-carboxamido)-N-methyl-N-((R)-1-methylpyrrolidin-3-yl)picolinamide] | < 10 nM
COc1c([C@H]2[C@H](C(=O)Nc3ccnc(C(=O)N4CC5(CCCN5C)C4)c3)O[C@@](C)(C(F)(F)F)[C@H]2C)ccc(F)c1F [Compound 270, (2R,3S,4S,5R)-3-(3,4-difluoro-2-methoxyphenyl)-4,5-dimethyl-N-(2-(5-methyl-2,5-diazaspiro[3.4]octane-2-carbonyl)pyridin-4-yl)-5-(trifluoromethyl)tetrahydrofuran-2-carboxamide] | 10 to 100 nM
COc1c([C@H]2[C@H](C(=O)Nc3ccnc(C(=O)NCCN(C)C)c3)O[C@@](C)(C(F)(F)F)[C@H]2C)ccc(F)c1F [Compound 271, 4-((2R,3S,4S,5R)-3-(3,4-difluoro-2-methoxyphenyl)-4,5-dimethyl-5-(trifluoromethyl)tetrahydrofuran-2-carboxamido)-N-(2-(dimethylamino)ethyl)picolinamide] | < 10 nM
COc1c([C@H]2[C@H](C(=O)Nc3ccnc(C(=O)N4CCN(C)C[C@@H]4C)c3)O[C@@](C)(C(F)(F)F)[C@H]2C)ccc(F)c1F [Compound 272, (2R,3S,4S,5R)-3-(3,4-difluoro-2-methoxyphenyl)-N-(2-((S)-2,4-dimethylpiperazine-1-carbonyl)pyridin-4-yl)-4,5-dimethyl-5-(trifluoromethyl)tetrahydrofuran-2-carboxamide] | 10 to 100 nM
